Laboratory results from patent US20100179130A1, “USE OF PIPERINE AND DERIVATIVES THEREOF FOR THE THERAPY OF NEUROLOGICAL CONDITIONS” (SYNGIS Bioscience GmbH & Co. KG, priority 2007, published 2010).

Assays:
[1] = test system: motoneural cell line NSC-34; test: Anti-apoptosis assay on motoneural cell line, staurosporine induced apoptosis, Caspase-Glo 3/7; type: cell-based; conditions: compound 1 μM in the presence of staurosporine 0.1 μM
Procedure: Instead of the SH-SY5Y cells used in Example 3 and 4, this analysis was performed with motoneural cell line NSC-34. […] Incubation with staurosporine (SP; 0.1 μM) alone served as positive control and incubation with vehicle served as negative control. The degree of apoptosis relative to the staurosporine control is shown in FIG. 4 (vehicle (sham): 6%; staurosporine (SP): 100%; piperine plus staurosporine: 70%; derivative B plus staurosporine: 55%; derivative E plus staurosporine: 75%; derivative G plus staurosporine: 76%; derivative K plus staurosporine: 83%; derivative S plus staurosporine: 77%; derivative U plus staurosporine: 71%).

[2] = oral, approximately 5 to 20 mg daily, human patients; cited from earlier work
[3] = cited from earlier work
mouse SCI model = test: Mouse spinal cord injury (SCI) model, Basso-Mouse-Score; type: in vivo; conditions: i.p. 10 mg/kg, then 20 mg/kg on two days, plus 1 mg/kg daily s.c. over 2 weeks; day 1-35
Procedure: Female mice at 2 months of age were anesthetized using inhalation anesthesia (1% Halothane/30% N20/70% O2). After laminectomy at the vertebral level Th8/9, the spinal cord was dorsally transected to ˜80% with fine iridectomy scissors leaving a ventral tissue bridge intact as previously described (Demjen et al. Nat Med 2004; 10: 389-395). The animals were treated postoperatively with gentamycin (i.p., 1 mg/kg bodyweight) once a day for 7 days. Bladders were emptied manually until restoration of autonomic bladder function. In the treatment experiment, C57BL/6 wild-type mice (n=20) received i.p. piperine during the operation (10 mg/kg bodyweight) and on the two following days (20 mg/kg bodyweight, each time. Further, the mice received a daily dose of 1 mg/kg bodyweight by continuous s.c. application over 2 weeks via an osmotic minipump (Alzet). Control group (sham, n=20) was treated accordingly but received only vehicle (20% Solutol-HS15). Piperine was solved in 20% Solutol-HS15 as described in Example 7. All animal experiments were approved by the ethical authorities. As a measurement for the outcome the Basso-Mouse-Score (BMS) (Basso et al. J Neurotrauma 2006; 23: 635-659) was determined at day 1, 7, 14, 21, 28, and 35 after operation. The BMS scores a value between 0 (no movement of the hind limbs) to 9 (healthy mouse).

SH-SY5Y neuronal cells = test: In vitro anti-apoptosis assay, staurosporine induced apoptosis, Caspase-Glo 3/7; type: cell-based, human
mice = conditions: cited from earlier work
rat MCAO model = test: Rat MCAO (filament) model for stroke, infarct volume by TTC staining
[4] = cited from earlier work; remark: listed apart in the source
adult rats = test: Neurogenesis in vivo, BrdU/NeuN co-staining of hippocampal slices; parameters: species or system rat; conditions: 6 weeks
Procedure: Male adult rats were divided in three groups. The rats were treated i.p. with 20% Solutol-HS15 (BASF SE) as vehicle (control group, n=11), 1 mg/kg bodyweight piperine (piperine I group, n=14 with total dose of 5 mg/kg piperin), or 10 mg/kg bodyweight piperine (piperine II group, n=13 with total dose of 50 mg/kg) once daily for 5 consecutive days. Piperine was solved in 20% Solutol-HS15 as described in Example 7. Further, all animals received BrdU (i.p. 50 mg/kg bodyweight) twice daily during these initial 5 days. BrdU is stably incorporated by dividing cells and therefore a suitable tool for the labelling of cells that divided within an experimentally defined time-window (i.e. the time during which BrdU was administered, which in the present example corresponds to the time during which Piperine was administered (Bagley et al BMC Neurosci. 2007; 8:92). The animals were sacrificed 6 weeks after the beginning of the treatment. Brains were removed rapidly, fixed with 4% paraformaldehyd and stored in 4% paraformaldehyd for further immunohistochemical analysis. 10 μm slices of the hippocampal area were generated and stained with sheep-anti-BrdU antibodies (Abcam, 1:100) and mouse-anti-NeuN antibodies (Chemicon, 1:500). Subsequently, the slices were stained for fluorescent detection with anti-sheep-biotin plus streptavidin-Cy2 and anti-mouse-Alexa555 (Molecular Probes, Fisher). […]

For O=C(/C=C/C=C/c1ccc2c(c1)OCO2)N1CCCCC1 [Piperine, (E,E)-1-[5-(1,3-benzodioxol-5-yl)-1-oxo-2,4-pentadienyl]piperidine], the “degree of apoptosis relative to the staurosporine control” value [1] is given as 70%, the tolerability [2] is given as “well tolerated” and the solubility in water [3] is given as “essentially insoluble in water”. The “outcome of experimental SCI (Basso-Mouse-Score)” value (mouse SCI model) was “clearly improved the outcome”, the “degree of apoptosis relative to the staurosporine control” value (SH-SY5Y neuronal cells; compound 1 μM in the presence of staurosporine 0.1 μM, SH-SY5Y) was 66% and the “reduction of the staurosporine induced apoptosis” value (SH-SY5Y neuronal cells; piperine 100 μM to 10 μM with staurosporine 0.1 μM, 5 h) was “significant reduction”. For the same compound, the “apoptotic effect by themselves” value (SH-SY5Y neuronal cells; without staurosporine) was “neither piperine nor derivatives thereof exhibited an apoptotic effect by themselves”, the “seizure activity induced by L-glutamate, N-methyl-D-aspartate or guanidinosuccinate” value (mice) was “did not significantly block seizure activity” and the “clonic convulsions induced by kainate” value (mice; injected intra-peritoneally) was “inhibited clonic convulsions”. For the same compound, the “total edema-corrected infarct size” value (rat MCAO model; 10 mg/kg i.v. 30 min after onset of occlusion, 24 h, mean ± SEM, n=30, p=0.031 vs vehicle) was 151±17 mm^3, the “edema-corrected infarct volume, subcortical areas” value (rat MCAO model; 10 mg/kg i.v. 30 min after onset of occlusion, 24 h, mean ± SEM, not statistically significant) was 78±6 mm^3 and the “edema-corrected infarct volume, cortex” value (rat MCAO model; 10 mg/kg i.v. 30 min after onset of occlusion, 24 h, mean ± SEM, p=0.018 vs vehicle) was 73±14 mm^3. For the same compound, the “tolerability of the treatment” value (rat MCAO model; 10 mg/kg i.v., rat) was “well tolerated”, the “maximum concentration in rat brain tissue” value ([4]; i.v. bolus of 50 mg/kg) was “about 4 μg/ml” and the “passage of the blood-brain-barrier” value ([4]; rat, in vivo) was “passes the intact blood-brain-barrier”. The “neurogenesis (NeuN/BrdU-positive cells per slice) compared to the control level” value (adult rats; 1 mg/kg i.p. once daily for 5 days (total 5 mg/kg)) was “clearly elevated levels of neurogenesis” and the “neurogenesis (NeuN/BrdU-positive cells per slice) compared to the control level” value (adult rats; 10 mg/kg i.p. once daily for 5 days (total 50 mg/kg)) was “clearly elevated levels of neurogenesis”.
